Experimental data as given in US20130345257A1, “COMPOSITION FOR LUPUS NEPHRITIS AND METHODS OF MAKING AND USING THE SAME” (The Regents of the University of California, priority 2012, published 2013).
Entries after “also recorded” stand apart in the source; their conditions may differ.

Assays:
Type in all cases: in vivo, mouse
[1] = tested on: leukocyte subsets present in kidney; test: Leukocyte subsets in kidney of treated BWF1 mice by flow cytometry; design: Frequency of cells ± SEM: CD11c^+CD11b− (DC) / Frequency of cells ± SEM: CD11b^+Ly6C^+Ly6G− / Frequency of cells ± SEM: CD11b^+Ly6C^+Ly6G+ / Frequency of cells ± SEM: CD4+ / Frequency of cells ± SEM: CD8+ / Frequency of cells ± SEM: CD11b^+MDSC−(Mφ) / Frequency of cells ± SEM: CD11c^+CD11b+(DC): unit not given here; details: for Frequency of cells ± SEM: CD4+ / Frequency of cells ± SEM: CD8+ / Frequency of cells ± SEM: CD11b^+Ly6C^+Ly6G+ / Frequency of cells ± SEM: CD11b^+Ly6C^+Ly6G− / Frequency of cells ± SEM: CD11b^+MDSC−(Mφ) / Frequency of cells ± SEM: CD11c^+CD11b+(DC) / Frequency of cells ± SEM: CD11c^+CD11b− (DC) / Frequency of cells ± SEM: CD19+: kidney, LAQ 25 mg/kg, MMF 100 mg/kg
Description: Single cell suspensions of splenocytes or kidney cells were prepared using cell strainers (Fisher), followed by red blood cell lysis. Kidney lymphocytes were separated from connective tissue by centrifugation (15 minutes at 400g) in 30% Percoll (GE Healthcare). CD4^+CD25^− cells from spleen and kidney were isolated using the CD4^+CD25^+ regulatory T cell isolation kit according to manufacturer's protocol (Miltenyi). CD11b+ cells were isolated using EasySep mouse CD11b positive selection kit (StemCell Technologies), surface stained for Ly6C and Ly6G prior to sorting myeloid-derived suppressor cells (MDSC) using FACSAria II. Populations were >95% pure by FACS analysis.
Single-cell suspensions from spleen or kidneys were stained for extracellular markers for 20 min at 4° C. in PBS/1% FBS. Intracellular staining for Foxp3 and cytokines was performed using the Foxp3 Fixation/Permeabilization kit according to the manufacturer's protocol (eBioscience). Cells were acquired on a FACS LSR II (BD) and data was analyzed using Flowjo (Tree Star).

[2] = tested on: BWF1 mice with anti-dsDNA and low proteinuria (PU^lo); test: Therapeutic treatment of BWF1 mice with anti-dsDNA and low proteinuria (PU^lo); details: LAQ 25 mg/kg, MMF 100 mg/kg
Description: Therapeutic Groups: a low proteinuria group)(PU^lo) consisted of mice with IgG anti-dsDNA detectable in serum and proteinuria ≦100 mg/dL, and a high proteinuria group (PU^hi) had proteinuria ≧300 mg/dL.
(§1) Proteinuria was evaluated weekly using Albustix (Siemens), serum creatinine using a commercial kit (Arbor Assays) and anti-dsDNA IgG antibodies by ELISA as described previously (10). See, e.g., FIGS. 1 and 2.
(§2) Kidney specimens of BWF1 mice (37 weeks of age in the prevention group or 7 and 11 weeks after institution of early or late therapies) were embedded in OCT compound and snap frozen. 4-5 μm an sections were air-dried, fixed with cold acetone and incubated with blocking buffer (anti-CD16/CD32 (1/50), 2% normal goat or rat serum, 2% BSA).
Histological analysis of glomerular pathology was done by an investigator blinded to treatment group and included acute inflammatory features (endocapillary hypercellularity, mesangial hypercellularity, cellular necrosis, cellular crescents, and interstitial inflammation), and chronic features (global glomerulosclerosis (GS), focal segmental glomerulosclerosis (FSGS), and interstitial fibrosis or tubular atrophy (IF/TA)). […] The weighted total score of the clinical features was based on this formula: [endocapillary hypercellularity+mesengial hypercellularity+(cellular necrosis*2)+(cellular crescents*2)+interstitial inflammation)/5]+(GS+FSGS+IFTA)/3, with maximum score 5.2. A minimum of 25 glomeruli, of at least 10 mice per group, were scored. Scores from each individual mouse were added and averaged to yield the glomerulonephritis score.

[3] = tested on: lupus nephritis in BWF1 mice; test: Preventive treatment of pre-nephritic BWF1 mice (survival, proteinuria, creatinine, anti-dsDNA, renal histology, IgG/C3 deposition); details: for Serum/plasma IgG anti-dsDNA antibody levels / Prevention of proteinuria: preventive treatment; for Serum/plasma IgG anti-dsDNA antibody levels: LAQ 1 or 25 mg/kg; for Prevention of proteinuria: both LAQ doses (1, 25 mg/kg); for Mice with proteinuria at 32 wks. of age: water 50%, p<0.0001; for Glomerular deposition of Ig and C3: treated prior to onset of clinical nephritis, vs water group p<0.001
Description: Clinical and immune cell changes were compared in groups of 10-12 BWF1 female mice in the following groups: • Group 1: Water orally 3 times a week for 24 weeks. • Group 2: Laquinimod 1 mg/kg orally 3 times a week for 24 weeks. • Group 3: Laquinimod 25 mg/kg orally 3 times a week for 24 weeks. • Group 4: Mycophenolate Mofetil 30 mg/kg orally […] for 24 weeks. • Group 5: Mycophenolate Mofetil 100 mg/kg orally […] for 24 weeks (“MMF 100”).
Preventive Group: 11-week old (pre-nephritic) BWF1 female mice were treated orally 3 times a week with a) water; b) laquinimod at 1 mg/kg (LAQ1, low dose) or c) 25 mg/kg (LAQ25, high dose) (Teva Pharmaceutical); or 5 times a week with d) mycophenolate mofetil at 30 mg/kg (MMF30, low dose) or e) 100 mg/kg (MMF100, high dose).
as §1, §2
Immunoglobulin G and C3 complement glomerular deposition were investigated by incubation of cryosections with fluoroscein isothiocyanate (FITC)-conjugated goat anti-mouse IgG (1:50) (Sigma) or rat anti-mouse C3 (1:800) (Solulink) in blocking buffer for 2 hours at room temperature. Images were acquired using Nikon Eclipse TE2000-U microscope and MetaMorph 6.3 software (Sunnyvale, Calif.). Quantification of the area immunostained in tissue sections was made using the computer image analysis software ImageJ (rsbinfonihgov</>ij</>indexhtml). For histology, kidney sections were fixed in 10% formalin and 2 μm-paraffin sections were stained with H&E, PAS and methenamine silver (Jones) for histological analysis.
Histological analysis of glomerular pathology was done by an investigator blinded to treatment group and included acute inflammatory features (endocapillary hypercellularity, mesangial hypercellularity, cellular necrosis, cellular crescents, and interstitial inflammation), and chronic features (global glomerulosclerosis (GS), focal segmental glomerulosclerosis (FSGS), and interstitial fibrosis or tubular atrophy (IF/TA)). The severity of each feature was graded as 0 (absent), 1 (lesions involving up to 25% of the component evaluated), 2 (lesions in 26-50% evaluated) or 3 (lesions in >50%) in each field of the microscope at 400× magnification. The weighted total score of the clinical features was based on this formula: [endocapillary hypercellularity+mesengial hypercellularity+(cellular necrosis*2)+(cellular crescents*2)+interstitial inflammation)/5]+(GS+FSGS+IFTA)/3, with maximum score 5.2. A minimum of 25 glomeruli, of at least 10 mice per group, were scored. Scores from each individual mouse were added and averaged to yield the glomerulonephritis score.

[4] = Preventive, 25 weeks after treatment
[5] = Therapeutic (PU^lo), 10 wks after initiation of therapy

CCN(C(=O)c1c(O)c2c(Cl)cccc2n(C)c1=O)c1ccccc1 [LAQ, 5-chloro-N-ethyl-4-hydroxy-1-methyl-2-oxo-N-phenyl-1,2-dihydroquinoline-3-carboxamide]
Frequency of cells ± SEM: CD4+ [1, 4]: 7.0 ± 0.5
Frequency of cells ± SEM: CD8+ [1, 4]: 4.2 ± 0.2
Frequency of cells ± SEM: CD11b^+Ly6C^+Ly6G+ [1, 4]: 7.9 ± 1.9
Frequency of cells ± SEM: CD11b^+Ly6C^+Ly6G− [1, 4]: 44.4 ± 1.5
Frequency of cells ± SEM: CD11b^+MDSC−(Mφ) [1, 4]: 31.0 ± 1.8
Frequency of cells ± SEM: CD11c^+CD11b+(DC) [1, 4]: 0.7 ± 0.1
Frequency of cells ± SEM: CD11c^+CD11b− (DC) [1, 4]: 3.8 ± 0.2
Frequency of cells ± SEM: CD19+ [1, 4]: 4.0 ± 0.5
Frequency of cells ± SEM: CD4+ [1, 5]: 2.8 ± 0.3
Frequency of cells ± SEM: CD8+ [1, 5]: 2.7 ± 0.2
Frequency of cells ± SEM: CD11b^+Ly6C^+Ly6G+ [1, 5]: 13.6 ± 1.2
Frequency of cells ± SEM: CD11b^+Ly6C^+Ly6G− [1, 5]: 41.2 ± 0.4
Frequency of cells ± SEM: CD11b^+MDSC−(Mφ) [1, 5]: 28.4 ± 0.9
Frequency of cells ± SEM: CD11c^+CD11b+(DC) [1, 5]: 0.7 ± 0.1
Frequency of cells ± SEM: CD11c^+CD11b− (DC) [1, 5]: 1.2 ± 0.1
Frequency of cells ± SEM: CD19+ [1, 5]: 2.7 ± 0.2
Number of MM in the kidneys ([1]; mouse, in vivo): suppresses numbers of monocytes/macrophages
Phenotype of MM isolated from kidneys ([1]; mouse, in vivo): promoting change from M1 to M2 phenotypes
Number of MM in the kidneys ([1]; mouse, in vivo, listed as laquinimod): significantly reduced
Anti-dsDNA ([2]; PU^lo arm): not significantly decreased
Increase of proteinuria ([2]; PU^lo arm): prevented increased proteinuria
Rise in serum creatinine ([2]; PU^lo arm): prevented
Survival ([2]; PU^lo arm): significantly prolonged survival
Reduction of endo-capillary hypercellularity, interstitial inflammation, and focal segmental glomerulosclerosis ([2]; PU^lo mice): equally effective
Survival vs. controls ([3]; BWF1 females treated orally for 24 weeks before disease, LAQ 1 and 25 mg/kg, MMF 100 mg/kg, p=0.028): better
Development of proteinuria six weeks after the treatment ([3]; FIG. 5, treated three days of each week prior to proteinuria): did not develop proteinuria
Survival, low dose treatment ([3]; LAQ 1 mg/kg 3 days a week, MMF 30 mg/kg 5 days a week, prior to anti-dsDNA and proteinuria, vs water): significantly better; also recorded: still alive at 45 weeks
Chronic scarring (GS, FSGS, IFTA) in kidney ([3]; higher doses, treated before proteinuria, vs water): less
Onset of proteinuria beyond 32 weeks up until about 42 weeks ([3]; low dose: LAQ 1 mg/kg 3 times a week, MMF 30 mg/kg): completely prevented onset of proteinuria
Serum/plasma IgG anti-dsDNA antibody levels ([3]; MMF 100 mg/kg, vs water): suppressed; also recorded: significantly lower; also recorded: lower anti-DNA levels
Serum/plasma IgG anti-dsDNA antibody levels ([3]; MMF 100 mg/kg, vs water, listed as Laquinimod): suppressed
Prevention of proteinuria ([3]; MMF 100 mg/kg): equivalent to MMF100 and completely prevented proteinuria and prevented the appearance of proteinuria and none
Prevention of proteinuria ([3]; MMF 100 mg/kg, listed as Laquinimod): equivalent to MMF 100
Kidney specimens (histology, glomerular IgG and C3 deposits) ([3]; preventive, LAQ 25 mg/kg, MMF 100 mg/kg, after more than 50% of controls developed high proteinuria): largely unremarkable
Rise in serum creatinine levels ([3]; preventive, LAQ 25 mg/kg, after 18 weeks of treatment): significantly delayed; also recorded: prevented a rise in serum creatinine
Mice with proteinuria at 32 wks. of age ([3]; treated before disease, LAQ 1 and 25 mg/kg, MMF 100 mg/kg): zero
Mice with proteinuria at 32 wks. of age ([3]; treated before disease, LAQ 1 and 25 mg/kg, MMF 100 mg/kg, listed as Laquinimod): none
Mean total histologic score (renal histology) ([3]; treated before disease, MMF 100 mg/kg, water 7.8, p<0.01): 1.0
Glomerular deposition of Ig and C3 [3]: in the normal range; also recorded: significantly decreased
Glomerular deposition of Ig and C3 ([3]; listed as laquinimod): in the normal range
